# Experimental data: patent publication US7972793B2, “Methods and compositions for the treatment of psychotic disorders through the identification of the SULT4A1-1 haplotype” (Suregene, LLC, priority 2009, dated 2011)
# Read-outs that look alike come from different tables or passages of the source. Marks after values point to notes of the source that are not given here.
# Tests used:
# [1] = system: CATIE Phase I non-responders; conditions: CATIE Phase II, LOCF; for Responders (number): decrease PANSS ≧ 20%
# [2] = system: patients, unsegmented populations; conditions: first generation antipsychotics; Davis et al. (2003); cited from earlier work
# [3] = system: patients, populations not segmented by SULT4A1-1 status; conditions: meta-analysis, Leucht et al. (2009); negative = greater reduction in PANSS; cited from earlier work
# [4] = system: CATIE African American schizophrenia patients; assay: CATIE drug response: change in total PANSS (LOCF), segmented by SULT4A1-1 status, African Americans; format: in vivo, human; conditions: for Responders: change in total PANSS ≦−20%
# Description: The design of the CATIE study has been described in detail by others (Lieberman et al., 2005; Stroup et al., 2003). […] A total of 738 subjects consented to provide DNA for genetic study. […] Retrospective genetic analyses, judged to be exempt from human studies requirements by an IRB, were conducted in the current study. All tested patients were studied using well established clinical endpoints comparing baseline, intermediate, and last observation carried forward (LOCF) for the PANSS scores using CATIE data. […] To remove time on drug as a variable for the CATIE trial, analysis was limited to only those patients who were randomized to a different drug following the initial washout period (drug switchers).
# [5] = system: CATIE patients; assay: Kaplan-Meier survival (no hospitalization event) analysis, SULT4A1-1 negative vs positive; format: in vivo, human; conditions: FIG. 8
# Description: A Kaplan-Meier survival analysis was performed to determine whether there was a difference between the survival (hospitalization) rates for the SULT4A1-1 negative and SULT4A1-1 positive patient populations treated with each of the atypical antipsychotics. Survival plots model the fraction of the population that survived (i.e., no hospitalization event) as a function of time.
# [6] = system: patients, unsegmented populations; conditions: Meta-analysis, Leucht et al. (2009); cited from earlier work
# [7] = system: CATIE Caucasian subjects; assay: Rate of hospitalization due to exacerbation of psychosis in CATIE by SULT4A1-1 status; format: in vivo, human
# From the text: For this analysis, the inventors assigned a dichotomous value (positive or negative) for hospitalization status to subjects in each phase of the trial based on only the first hospitalization event for a given patient in that phase.
# [8] = system: CATIE Caucasian schizophrenia patients; assay: Time to discontinuation for all causes in the CATIE study; format: in vivo, human
# From the text: The primary endpoint for the CATIE study was time to discontinuation for all causes (Lieberman et al., 2005). Thus the inventors evaluated the effect of SULT41-1 status on this important parameter.
# [9] = system: CATIE schizophrenia patients; assay: Length of successful treatment by the CGI scale (TMSUCC1) in CATIE; format: in vivo, human
# From the text: The CATIE clinical data set included the Clinical Global Impression (CGI) Scale, an observer-provided assessment of the psychiatric health of the patient (Stroup et al., 2003; Guy 1976). Patients are rated with the CGI Scale from 1 to 7, with higher scores indicating greater severity of illness. The CATIE study provided a response variable that measured the time (in months) of successful treatment as measured by the CGI scale (“TMSUCC1” in the CATIE data).
# The CATIE clinical data set included Clinical Global Impression (CGI) Scale, an observer-provided assessment of the psychiatric health of the patient (Stroup et al., 2003; Guy 1976). Patients are rated with the CGI Scale from 1 to 7, with higher scores indicating greater severity of illness. The CATIE study provided a response variable that measured the time (in months) of successful treatment as measured by the CGI scale (“TMSUCC1” in the CATIE data).
# [10] = system: CATIE Caucasian schizophrenia patients; assay: CATIE Phase 1 drug response: change in total PANSS (LOCF), drug switchers, segmented by SULT4A1-1 status; format: in vivo, human; conditions: for ≦−20% (number of individuals with this percent change in total PANSS; responders) / ≧−20% (number of individuals with this percent change in total PANSS; non-responders): LOCF; for Non Responder (number) / Responder (number): Table 16, 20% decrease in PANSS threshold
# From the text: There are several different metrics for quantifying response in clinical trials of antipsychotic medications. The most commonly used psychometric instrument is the Positive and Negative Syndrome Scale (PANSS), a 30-item semi-quantitative instrument scored by clinical professionals (Kay et al., 1987). The greater the decrease in PANSS score, the better the clinical response. The most direct measure of clinical response is absolute change in PANSS score. In addition to absolute change, the improvement is often reported as a percentage change from baseline PANSS score.
# A decrease of at least 20% in total PANSS is one commonly used threshold for response (Leucht et al., 2009).
# The design of the CATIE study has been described in detail by others (Lieberman et al., 2005; Stroup et al., 2003). […] A total of 738 subjects consented to provide DNA for genetic study. […] Retrospective genetic analyses, judged to be exempt from human studies requirements by an IRB, were conducted in the current study.
# All tested patients were studied using well established clinical endpoints comparing baseline, intermediate, and last observation carried forward (LOCF) for the PANSS scores using CATIE data. LOCF analysis is a commonly used clinical endpoint for clinical trials for neuropsychiatric drugs, with changes in PANSS scores of between negative 20% and negative 30% used as typical endpoints to indicate clinically significant response (Leucht et al., 2009). To remove time on drug as a variable for the CATIE trial, analysis was limited to only those patients who were randomized to a different drug following the initial washout period (drug switchers).
# As mentioned previously, the mean change in absolute or percent PANSS provides an important measure of efficacy in patients undergoing antipsychotic treatments. Indeed, many pivotal trials in the psychosis field used absolute and/or percentage change in PANSS Score as the primary endpoint (Leucht et al., 2009). […] Therefore, in addition to examining a categorical definition of clinically significant response, the inventors determined the impact of segmentation by SULT4A1-1 status on the quantitative measure of clinical improvement—delta PANSS.
# [11] = SULT4A1-1 Positive, CATIE Phases 1, 2 and/or 3
# [12] = SULT4A1-1 negative, CATIE Phases 1, 2 and/or 3
# [13] = Unsegmented, CATIE Phases 1, 2 and/or 3
# [14] = SULT4A1-1 Negative, CATIE Caucasians
# [15] = SULT4A1-1 Positive, CATIE Caucasians
# [16] = SULT4A1-1 negative group (sign not given)
# [17] = SULT4A1-1 positive group (sign not given)
# [18] = olanzapine SULT4A1-1 + vs olanzapine SULT4A1-1 −, CATIE
# [19] = olanzapine SULT4A1-1 + vs perphenazine SULT4A1-1 +, CATIE
# [20] = olanzapine SULT4A1-1 + vs quetiapine SULT4A1-1 +, CATIE
# [21] = olanzapine SULT4A1-1 + vs risperidone SULT4A1-1 +, CATIE
# [22] = olanzapine SULT4A1-1 + vs unsegmented (all drugs), CATIE
# [23] = olanzapine SULT4A1-1 + vs unsegmented SULT4A1-1 +, CATIE
# [24] = olanzapine SULT4A1-1 + vs unsegmented olanzapine, CATIE
# [25] = olanzapine SULT4A1-1 + vs ziprasidone SULT4A1-1 +, CATIE
smiles,measurement,setting,value
Cc1nc2n(c(=O)c1CCN1CCC(c3noc4cc(F)ccc34)CC1)CCCC2 [Risperidone],Nonresponders (number),[1]; SULT4A1-1 Negative,8
same,Responders (number),[1]; SULT4A1-1 Negative,4
same,% Responders,[1]; SULT4A1-1 Positive,0%
same,Nonresponders (number),[1]; SULT4A1-1 Positive,1
same,Responders (number),[1]; SULT4A1-1 Positive,0
same,Effect Size vs. FGA,[2],−0.25
same,Effect Size vs. Placebo,[3],−0.59
same,≦−20% (number of individuals; responders),[4]; SULT4A1-1 Negative,7
same,≧−20% (number of individuals; non-responders),[4]; SULT4A1-1 Negative,34
same,≦−20% (number of individuals; responders),[4]; SULT4A1-1 Positive,3
same,≧−20% (number of individuals; non-responders),[4]; SULT4A1-1 Positive,2
same,Responders,[4]; SULT4A1-1 Positive,60%
same,Difference between survival (no hospitalization) rates of SULT4A1-1 negative and SULT4A1-1 positive patients,[5],not statistically significant
same,"Mean Difference in Total PANSS Score, Olanzapine vs. labelled drug",[6],−1.9
same,HOSP (number of subjects hospitalized),[7]; [11],4
same,HOSP (rate of hospitalization),[7]; [11],(11.1%)
same,HOSP (number of subjects hospitalized),[7]; [12],16
same,HOSP (rate of hospitalization),[7]; [12],(13%)
same,HOSP (number of subjects hospitalized),[7]; [13],20
same,HOSP (rate of hospitalization),[7]; [13],(12.6%)
same,"Time to discontinuation, mean time in months",[8]; SULT4A1-1 Negative,11.3 Months
same,"Time to discontinuation, mean time in months",[8]; SULT4A1-1 Positive,8.0*** Months
Cc1cc2c(s1)Nc1ccccc1N=C2N1CCN(C)CC1 [Olanzapine],Nonresponders (number),[1]; SULT4A1-1 Negative,14
same,Responders (number),[1]; SULT4A1-1 Negative,3
same,Nonresponders (number),[1]; SULT4A1-1 Positive,4
same,Responders (number),[1]; SULT4A1-1 Positive,3
same,≦−20% (number of individuals; responders),[4]; SULT4A1-1 Negative,15
same,≧−20% (number of individuals; non-responders),[4]; SULT4A1-1 Negative,30
same,≦−20% (number of individuals; responders),[4]; SULT4A1-1 Positive,1
same,≧−20% (number of individuals; non-responders),[4]; SULT4A1-1 Positive,3
same,Responders,[4]; SULT4A1-1 Positive,25%
same,"Length of Successful Treatment (CGI Months), Mean",[9]; SULT4A1-1 Positive,8.33^d Months
same,"Length of Successful Treatment (CGI Months), Mean",[9]; Unsegmented,6.10 Months
same,HOSP (number of subjects hospitalized),[7]; [11],1
same,HOSP (rate of hospitalization),[7]; [11],(2.6%)
same,HOSP (rate of hospitalization),"[7]; SULT4A1-1 Positive, CATIE Phases 1, 2 and/or 3, listed as olanzapine",2.6%
same,HOSP (number of subjects hospitalized),[7]; [12],22
same,HOSP (number of subjects hospitalized),[7]; [13],23
same,HOSP (rate of hospitalization),[7]; [13],(14.2%)
same,DELTA PANSS % (mean change in PANSS score from baseline to LOCF),[10]; [14],−3*** %
same,≦−20% (number of individuals with this percent change in total PANSS; responders),[10]; [14],10
same,≧−20% (number of individuals with this percent change in total PANSS; non-responders),[10]; [14],33
same,DELTA PANSS % (mean change in PANSS score from baseline to LOCF),"[10]; SULT4A1-1 Negative, CATIE Caucasians, listed as olanzapine",−3%
same,DELTA PANSS % (mean change in PANSS score from baseline to LOCF),[10]; [15],−24%
same,≦−20% (number of individuals with this percent change in total PANSS; responders),[10]; [15],10
same,≧−20% (number of individuals with this percent change in total PANSS; non-responders),[10]; [15],5
same,Non Responder (number),[10]; [16],33
same,Responder (number),[10]; [16],10
same,Non Responder (number),[10]; [17],5
same,Responder (number),[10]; [17],10
same,Effect size,"[10]; olanzapine SULT4A1-1 + vs SULT4A1-1 + except olanzapine, CATIE",0.68
same,Effect size,[10]; [18],0.93
same,Mean difference (95% CI) in delta PANSS,[10]; [18],−20.9 (−33.4 to −8.4)
same,Effect size,[10]; [19],0.68
same,Mean difference (95% CI) in delta PANSS,[10]; [19],−14.2 (−29.8 to 1.4)
same,Effect size,[10]; [20],0.75
same,Mean difference (95% CI) in delta PANSS,[10]; [20],−14.9 (−28.3 to −1.5)
same,Effect size,[10]; [21],0.93
same,Mean difference (95% CI) in delta PANSS,[10]; [21],−20.9 (−33.2 to −6.0)
same,Effect size,[10]; [22],0.83
same,Mean difference (95% CI) in delta PANSS,[10]; [22],−19.6 (−31.7 to −7.5)
same,Effect size,[10]; [23],0.60
same,Mean difference (95% CI) in delta PANSS,[10]; [23],−13.0 (−24.7 to −1.2)
same,Effect size,[10]; [24],0.69
same,Mean difference (95% CI) in delta PANSS,[10]; [24],−15.5 (−27.8 to −3.2)
same,Effect size,[10]; [25],0.77
same,Mean difference (95% CI) in delta PANSS,[10]; [25],−16.1 (−32.7 to 0.5)
same,Effect size,"[10]; olanzapine-treated SULT4A1-1 positive patients compared to various other SULT4A1-1-drug combinations, CATIE",−0.91 to −0.47
same,delta PANSS,"[10]; overall (not segmented by SULT4A1-1 status), CATIE",−9
same,"Responders (number, out of 58)","[10]; patients unselected for SULT4A1-1 status, 20% PANSS threshold, CATIE Caucasians",20
same,"Time to discontinuation, mean time in months",[8]; SULT4A1-1 Negative,10.0** Months
